Reference: patent publication US8198273B2, “Compounds and methods for kinase modulation, and indications therefor” (Plexxikon Inc., priority 2009, dated 2012)

Experiments:
B-Raf = B-Raf (Homo sapiens, UniProt P15056); assay: B-Raf biochemical kinase inhibition (AlphaScreen, biotin-MEK1 substrate); conditions: 100 μM ATP
Method in brief: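 Eight-point compound series (made from a 0.1 mM DMSO stock) tested against each Raf enzyme with biotin-MEK1 substrate and 100 μM final ATP.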

[1] = Relative solubility by turbidity in aqueous buffers of varying pH; format: physicochemical; conditions: for turbidity threshold (L, M, H) 7.4: HEPES pH 7.4; for turbidity threshold (L, M, H) 4.5: SIF pH 4.5; for turbidity threshold (L, M, H) 6.8: SIF pH 6.8; for turbidity threshold (L, M, H) 1.4: buffer pH 1.4 (SGF)
Method in brief: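 Turbidity endpoint: concentration where optical density at 490, 535 and 650 nm exceeds 0.01, three-wavelength average used. Buffers at pH 1.5, 4.5, 6.8 and 7.4; DMSO serial dilutions of 25 mM stock spiked 1 μL into 99 μL buffer. Low <31.3, moderate 31.3–250, high >250 μM.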

CYP3A4(BFC) = CYP3A4(BFC) (Homo sapiens, UniProt P08684); assay: CYP3A4(BFC) inhibition (fluorescent substrate); format: in vitro ADME; conditions: read-out: Cyp IC50 3A4(BFC)
Chain of CYP3A4(BFC) (P08684 whole entry): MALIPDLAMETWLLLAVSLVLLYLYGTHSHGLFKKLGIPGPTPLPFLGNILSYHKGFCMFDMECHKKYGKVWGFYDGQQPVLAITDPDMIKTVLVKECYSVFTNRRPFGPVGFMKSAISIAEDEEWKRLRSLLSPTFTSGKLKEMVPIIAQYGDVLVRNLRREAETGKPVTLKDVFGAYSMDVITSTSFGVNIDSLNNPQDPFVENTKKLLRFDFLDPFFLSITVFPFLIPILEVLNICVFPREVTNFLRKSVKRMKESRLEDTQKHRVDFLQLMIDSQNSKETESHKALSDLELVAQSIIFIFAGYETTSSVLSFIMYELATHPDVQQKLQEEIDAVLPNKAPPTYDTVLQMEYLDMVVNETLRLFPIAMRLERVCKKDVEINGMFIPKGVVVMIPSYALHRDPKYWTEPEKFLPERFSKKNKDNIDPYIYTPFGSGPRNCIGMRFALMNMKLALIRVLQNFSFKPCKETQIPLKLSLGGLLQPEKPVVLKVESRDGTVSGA
Method in brief: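 Compound, from a 100 mM DMSO stock and diluted 1:1 over 10 points in co-factor mix, was incubated at 37° C with enzyme and a known substrate. Decrease in fluorescent product against concentration gave the IC50.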

Chain of B-Raf (P15056 whole entry): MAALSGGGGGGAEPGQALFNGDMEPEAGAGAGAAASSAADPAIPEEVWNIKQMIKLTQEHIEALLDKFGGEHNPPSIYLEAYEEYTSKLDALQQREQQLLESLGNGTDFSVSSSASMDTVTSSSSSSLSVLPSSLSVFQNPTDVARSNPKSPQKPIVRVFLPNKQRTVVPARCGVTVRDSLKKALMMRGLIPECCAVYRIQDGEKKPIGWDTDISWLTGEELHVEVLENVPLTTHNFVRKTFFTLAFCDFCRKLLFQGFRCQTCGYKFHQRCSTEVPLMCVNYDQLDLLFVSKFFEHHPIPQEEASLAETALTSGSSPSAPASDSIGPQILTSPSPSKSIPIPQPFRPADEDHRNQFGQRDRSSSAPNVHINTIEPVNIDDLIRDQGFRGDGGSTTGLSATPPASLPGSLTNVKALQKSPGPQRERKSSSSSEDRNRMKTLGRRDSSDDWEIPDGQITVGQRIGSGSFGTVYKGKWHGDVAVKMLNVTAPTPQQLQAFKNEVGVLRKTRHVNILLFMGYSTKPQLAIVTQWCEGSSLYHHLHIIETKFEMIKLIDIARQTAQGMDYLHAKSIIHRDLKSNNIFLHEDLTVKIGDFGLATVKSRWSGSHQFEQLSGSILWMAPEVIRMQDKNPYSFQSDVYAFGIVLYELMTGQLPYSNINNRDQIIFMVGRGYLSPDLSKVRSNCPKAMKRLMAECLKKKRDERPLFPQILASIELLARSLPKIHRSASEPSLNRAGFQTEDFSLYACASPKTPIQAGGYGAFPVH

SMILES | IC50 (B-Raf) | IC50 (CYP3A4(BFC)) | turbidity threshold (L, M, H) 7.4 [1] | turbidity threshold (L, M, H) 4.5 [1] | turbidity threshold (L, M, H) 6.8 [1] | turbidity threshold (L, M, H) 1.4 [1]
COc1ncc(-c2cnc3[nH]cc(C(=O)c4c(F)ccc(NS(=O)(=O)c5cccc(F)c5)c4F)c3c2)cn1 [P-2045, N-{2,4-Difluoro-3-[5-(2-methoxy-pyrimidin-5-yl)-1H-pyrrolo[2,3-b]pyridine-3-carbonyl]-phenyl}-3-fluoro-benzenesulfonamide] | < 0.01 µM | > 10 µM | M (moderate solubility if the threshold concentration is 31.3 μM to 250 μM) | L (low solubility if the threshold concentration is <31.3 04) | L (low solubility if the threshold concentration is <31.3 04) | L (low solubility if the threshold concentration is <31.3 04)
CCCS(=O)(=O)Nc1ccc(F)c(C(=O)c2c[nH]c3ncc(-c4ccc(OC)nc4OC)cc23)c1F [P-2184, Propane-1-sulfonic acid {3-[5-(2,6-dimethoxy-pyridin-3-yl)-1H-pyrrolo[2,3-b]pyridine-3-carbonyl]-2,4-difluoro-phenyl}-amide] | < 0.1 µM | > 10 µM | L (low solubility if the threshold concentration is <31.3 04) | L (low solubility if the threshold concentration is <31.3 04) | L (low solubility if the threshold concentration is <31.3 04) | L (low solubility if the threshold concentration is <31.3 04)
O=C(c1c(F)ccc(NS(=O)(=O)c2c(F)cccc2F)c1F)c1c[nH]c2ncc(Cl)cc12 [P-2003, N-[3-(5-Chloro-1H-pyrrolo[2,3-b]pyridine-3-carbonyl)-2,4-difluoro-phenyl]-2,6-difluoro-benzenesulfonamide] | < 0.1 µM | > 10 µM | H (high solubility if the threshold concentration is >250 μM) | M (moderate solubility if the threshold concentration is 31.3 μM to 250 μM) | M (moderate solubility if the threshold concentration is 31.3 μM to 250 μM) | M (moderate solubility if the threshold concentration is 31.3 μM to 250 μM)
CCCS(=O)(=O)Nc1ccc(F)c(C(=O)c2c[nH]c3ncc(-c4cncc(S(C)(=O)=O)c4)cc23)c1F [P-2188, Propane-1-sulfonic acid {2,4-difluoro-3-[5-(5-methanesulfonyl-pyridin-3-yl)-1H-pyrrolo[2,3-b]pyridine-3-carbonyl]-phenyl}-amide] | < 0.01 µM | > 10 µM | M (moderate solubility if the threshold concentration is 31.3 μM to 250 μM) | L (low solubility if the threshold concentration is <31.3 04) | L (low solubility if the threshold concentration is <31.3 04) | M (moderate solubility if the threshold concentration is 31.3 μM to 250 μM)
CCCS(=O)(=O)Nc1ccc(F)c(C(=O)c2c[nH]c3ncc(-c4ccnc(F)c4)cc23)c1F [P-2192, Propane-1-sulfonic acid {2,4-difluoro-3-[5-(2-fluoro-pyridin-4-yl)-1H-pyrrolo[2,3-b]pyridine-3-carbonyl]-phenyl}-amide] | < 0.01 µM | > 10 µM | L (low solubility if the threshold concentration is <31.3 04) | L (low solubility if the threshold concentration is <31.3 04) | L (low solubility if the threshold concentration is <31.3 04) | L (low solubility if the threshold concentration is <31.3 04)
CCCS(=O)(=O)Nc1ccc(F)c(C(=O)c2c[nH]c3ncc(-c4ccc(CCCOC)nc4)cc23)c1F [P-2226, Propane-1-sulfonic acid (2,4-difluoro-3-{5-[6-(3-methoxy-propyl)-pyridin-3-yl]-1H-pyrrolo[2,3-b]pyridine-3-carbonyl}-phenyl)-amide] | < 0.01 µM | > 10 µM | L (low solubility if the threshold concentration is <31.3 04) | L (low solubility if the threshold concentration is <31.3 04) | L (low solubility if the threshold concentration is <31.3 04) | H (high solubility if the threshold concentration is >250 μM)
CCCS(=O)(=O)Nc1ccc(F)c(C(=O)c2c[nH]c3ncc(-c4ccc(C(=O)NC)nc4)cc23)c1F [P-2180, 5-{3-[2,6-Difluoro-3-(propane-1-sulfonylamino)-benzoyl]-1H-pyrrolo[2,3-b]pyridin-5-yl}-pyridine-2-carboxylic acid methylamide] | < 0.01 µM | > 10 µM | L (low solubility if the threshold concentration is <31.3 04) | L (low solubility if the threshold concentration is <31.3 04) | L (low solubility if the threshold concentration is <31.3 04) | L (low solubility if the threshold concentration is <31.3 04)
CCCS(=O)(=O)Nc1ccc(F)c(C(=O)c2c[nH]c3ncc(-c4cnn(Cc5ccccc5)c4)cc23)c1F [P-2190, Propane-1-sulfonic acid {3-[5-(1-benzyl-1H-pyrazol-4-yl)-1H-pyrrolo[2,3-b]pyridine-3-carbonyl]-2,4-difluoro-phenyl}-amide] | < 0.01 µM | > 10 µM | L (low solubility if the threshold concentration is <31.3 04) | L (low solubility if the threshold concentration is <31.3 04) | L (low solubility if the threshold concentration is <31.3 04) | L (low solubility if the threshold concentration is <31.3 04)
CCCS(=O)(=O)Nc1ccc(F)c(C(=O)c2c[nH]c3ncc(-c4ccc(S(N)(=O)=O)cc4)cc23)c1F [P-2194, 4-{3-[2,6-Difluoro-3-(propane-1-sulfonylamino)-benzoyl]-1H-pyrrolo[2,3-b]pyridin-5-yl}-benzenesulfonamide] | < 0.01 µM | > 10 µM | L (low solubility if the threshold concentration is <31.3 04) | L (low solubility if the threshold concentration is <31.3 04) | L (low solubility if the threshold concentration is <31.3 04) | L (low solubility if the threshold concentration is <31.3 04)

Further lines, with some results ahead:

IC50 (B-Raf) | IC50 (CYP3A4(BFC)) | SMILES | turbidity threshold (L, M, H) 7.4 [1] | turbidity threshold (L, M, H) 4.5 [1] | turbidity threshold (L, M, H) 6.8 [1] | turbidity threshold (L, M, H) 1.4 [1]
< 0.01 µM | > 10 µM | CCCS(=O)(=O)Nc1ccc(F)c(C(=O)c2c[nH]c3ncc(-c4cnc(SC)nc4)cc23)c1F [P-2189, Propane-1-sulfonic acid {2,4-difluoro-3-[5-(2-methylsulfanyl-pyrimidin-5-yl)-1H-pyrrolo[2,3-b]pyridine-3-carbonyl]-phenyl}-amide] | L (low solubility if the threshold concentration is <31.3 04) | L (low solubility if the threshold concentration is <31.3 04) | L (low solubility if the threshold concentration is <31.3 04) | L (low solubility if the threshold concentration is <31.3 04)
< 0.01 µM | > 10 µM | CCCS(=O)(=O)Nc1ccc(F)c(C(=O)c2c[nH]c3ncc(-c4ccc(F)nc4)cc23)c1F [P-2155, Propane-1-sulfonic acid {2,4-difluoro-3-[5-(6-fluoro-pyridin-3-yl)-1H-pyrrolo[2,3-b]pyridine-3-carbonyl]-phenyl}-amide] | L (low solubility if the threshold concentration is <31.3 04) | L (low solubility if the threshold concentration is <31.3 04) | L (low solubility if the threshold concentration is <31.3 04) | L (low solubility if the threshold concentration is <31.3 04)
< 0.01 µM | 5 to 10 µM | COc1ccnc2[nH]cc(C(=O)c3c(F)ccc(NS(=O)(=O)c4cccc(F)c4)c3F)c12 [P-2023, N-[2,4-Difluoro-3-(4-methoxy-1H-pyrrolo[2,3-b]pyridine-3-carbonyl)-phenyl]-3-fluoro-benzenesulfonamide] | M (moderate solubility if the threshold concentration is 31.3 μM to 250 μM) | M (moderate solubility if the threshold concentration is 31.3 μM to 250 μM) | M (moderate solubility if the threshold concentration is 31.3 μM to 250 μM) | H (high solubility if the threshold concentration is >250 μM)
< 0.01 µM | > 10 µM | CCCS(=O)(=O)Nc1ccc(F)c(C(=O)c2c[nH]c3ncc(-c4ccc(C(=O)NC5CC5)nc4)cc23)c1F [P-2181, 5-{3-[2,6-Difluoro-3-(propane-1-sulfonylamino)-benzoyl]-1H-pyrrolo[2,3-b]pyridin-5-yl}-pyridine-2-carboxylic acid cyclopropylamide] | L (low solubility if the threshold concentration is <31.3 04) | L (low solubility if the threshold concentration is <31.3 04) | L (low solubility if the threshold concentration is <31.3 04) | L (low solubility if the threshold concentration is <31.3 04)
